Experimental findings from ChEMBL document CHEMBL3507680, “University of Dundee, Gates Library screen for HepG2 cell viability” are described below.

The nature of this data set: Human HepG2 cell viability assay in 384 well format. The format is toxicity, cell-based. Further details: dose 125 nL, time 70.5 hour; cytotoxicity at 70.5 h: concentration not given beside the values. As to conditions: HepG2 cells, read-out: Inhibition.

Consider `CCCc1ccc2oc(C(=O)N3CCC(O)CC3)c(C)c2c1`, for which the cytotoxicity at 70.5 h stood at 6.68%. Then `Cc1ncsc1CCN(C)C1CCN(c2ncnc3[nH]cnc23)CC1`, with -6.66%; and `CCCc1nnc(NC(C)c2ccc3c(c2)OCCO3)o1` (stereo unspecified), with 19.1%; and `CCn1c(C)nnc1SCCNc1cc(COC)ncn1`, with -22.7%. For the compound `CCC(C(=O)N1CCN(S(=O)(=O)N2CCCC2)CC1)n1cccn1` (stereo unspecified), the cytotoxicity at 70.5 h is -3.42%. For `CN(Cc1ccc(-n2cccn2)cc1)c1cc(N)nc(N)n1`, the cytotoxicity at 70.5 h was determined as 18.4%. For the compound `CC(C)c1nc(CN(C)C(=O)Cn2nc3ccccc3n2)no1`, the cytotoxicity at 70.5 h was -10.4%. Then `O=C(c1ccc2ccccc2c1)C1CCCN(C(=O)Cn2cnnn2)C1` (stereo unspecified), with -3.65%; and `Cc1cnc(C)c(N2CCN(CC3CCCO3)CC2)n1` (stereo unspecified), with -6.94%.

`O=C(O)[C@@H]1CN(C(=O)CCC(F)(F)F)C[C@H]1c1ccncc1`: the cytotoxicity at 70.5 h is -1.6%. Then `CN(Cc1cnn(C)c1)c1nccc(-c2cc(C(=O)O)ccn2)n1`, with 18.1%. Then `CNC(C(=O)N1CCC(c2nccn2C(C)C)CC1)c1ccccc1` (stereo unspecified), with -8.05%.

`CCCc1n[nH]c(=O)n1Cc1ccc(OC)cc1`: the cytotoxicity at 70.5 h was found to be 12.2%. Then `CCCN1CCC(CC(=O)N2CCC(C(O)c3nccn3C)CC2)CC1` (stereo unspecified), with -11.6%; and `CCn1nc(CC(C)C)cc1C(=O)N1CCC2(CC1)[C@H](O)C[C@@H]2O`, with 1.5%; and `O=C(O)C1(Cc2cccc(Cl)c2)CCCN(c2ncnc3[nH]ccc23)C1` (stereo unspecified), with -13%. Then `Cc1cc(C)c2nc(C)cc(C(=O)NCc3csc(N(C)C)n3)c2c1`, with 27.3%; and `CS(=O)(=O)N1C[C@H]2CNC[C@@]2(C(=O)NCCCc2ccccc2)C1`, with -3.07%; and `COc1ccc(CN(CC2CCCO2)C(=O)CN2CCOC2=O)cc1` (stereo unspecified), with -14.7%.

Regarding `CCn1c(Cn2cncn2)nnc1C1CCN(C[C@H]2[C@@H]3CNC[C@@H]32)CC1`, the cytotoxicity at 70.5 h was -20.4%. For `COC(=O)c1ccc(CNC(=O)CN2C[C@@H](NC(C)=O)[C@H](C(C)C)C2)o1`, the cytotoxicity at 70.5 h is -6.07%. For `NC(=O)Cn1ccnc1C1CCCN(Cc2ccccc2OC(F)F)C1` (stereo unspecified) the value was -6.45%; for `CCc1nc(C)cc(N2CCCC(C(=O)c3ccc(OC)cc3C)C2)n1` (stereo unspecified), 6.28%; for `CCCN1C[C@H]2CC[C@@H]1CN(Cc1ccc(Cn3cccn3)cc1)C2`, -7.61%. With `CN1CCN(C(=O)N2CCC3(CCCN(C4CCOCC4)C3=O)C2)CC1` (stereo unspecified), the cytotoxicity at 70.5 h is -0.535%. Turning to `CCc1ccc(CN2CCN(c3ncc(Cl)cn3)CC2)nc1`, the cytotoxicity at 70.5 h was -5.54%. Turning to `COc1cccc(OCCc2cncc(C(N)=O)c2)c1`, the cytotoxicity at 70.5 h was -9.46%. Then `O=C(O)[C@@H]1CN(Cc2cnc(C3CCCCC3)nc2)C[C@H]1C1CC1`, with 10.9%. In the case of `Cc1cc(C(=O)N2CCCCC2c2nc3cc(F)ccc3[nH]2)nn1C` (stereo unspecified), the cytotoxicity at 70.5 h was -6.6%.

Regarding `Cc1ccc(C)c(CN2C[C@H]3CC[C@@H]2CN(C(=O)c2cccnc2)C3)c1`, the cytotoxicity at 70.5 h came out at 1.01%.

`CCN1CCC(CC(=O)N2CCn3cccc3C2c2cccnc2)CC1` (stereo unspecified): the cytotoxicity at 70.5 h turned out to be 28.5%. Turning to `Cc1cccc(CN2C[C@@H](CN3CCCN(C)CC3)C[C@H](CO)C2)n1`, the cytotoxicity at 70.5 h is -5.2%. For `Cn1ccnc1CN1CC[C@@H]2[C@@H](CCC(=O)N2CCc2c[nH]cn2)C1`, the cytotoxicity at 70.5 h worked out at 27.2%. Then `O=C(c1cnc(Nc2ccccc2)nc1)N1CCC(O)(CO)CC1`, with -6.53%; and `COCCCC1(C(=O)O)CCCN(C(=O)c2ccc(C(C)C)[nH]c2=O)C1` (stereo unspecified), with -5.84%. With `CC(C)N1CCCn2nc(C(=O)NCCc3ccccn3)cc2C1`, the cytotoxicity at 70.5 h was -9.32%. For `Cc1cccc(C(=O)N2C[C@H]3CC[C@@H]2CN(S(=O)(=O)N(C)C)C3)n1` the value was -10.2%. With `CS(=O)(=O)Nc1ccc2c(c1)NC(=O)CC2c1cnn2cccnc12` (stereo unspecified), the cytotoxicity at 70.5 h stood at 17.5%. Regarding `COc1ncc(C(=O)N(Cc2cnn(C)c2)C(C)C)cn1`, the cytotoxicity at 70.5 h is -7.11%. With `Cc1ccc(CN2C[C@H]3C(=O)N(CC4CC4)C[C@@]3(C(=O)O)C2)c(F)c1F`, the cytotoxicity at 70.5 h came out at 9.58%.

`Cc1ncoc1C(=O)N1CCOC(CC2CCCCC2)C1` (stereo unspecified): the cytotoxicity at 70.5 h was -5.24%. For `CC[C@H]1COCCN1C(=O)c1cnc(N2CCN(C)CC2)nc1C` the value was -8.1%. `COCCN1CCC(CN(CC2CCCO2)C(=O)C2CCOCC2)CC1` (stereo unspecified): the cytotoxicity at 70.5 h is -5.33%.

`Cc1ccccc1N1CCCN(C(=O)CCc2nncn2C)CC1`: the cytotoxicity at 70.5 h is -7.29%. For `Cc1nccc(N[C@H]2CN(C(=O)CN3CCOCC3)C[C@@H]2C(C)C)n1` the value was -1.67%; for `Cc1c(NC(=O)c2cnc[nH]2)cccc1C(=O)NC(C)(C)C`, -5.11%; for `CCOc1c(CNC2CSCCSC2)cccc1OC`, 20.2%. For `CC(C)C[C@H](Nc1nc(C2CCCC2)nc2c1cnn2C)C(N)=O` the value was -6.77%; for `COc1ccccc1Oc1ncccc1CNC(=O)[C@H](C)O`, -6.71%; for `CCN1CC(C(=O)N2CCc3cc(C(N)=O)n(C)c3C2)CCC1=O` (stereo unspecified), -6.08%. Regarding `Cc1ccc([C@@H]2CN(C(=O)CCc3cc(Cl)no3)C[C@H]2N(C)C)cc1`, the cytotoxicity at 70.5 h is 11.1%.

Turning to `O=C(COCc1ccccc1)N1CCN(Cc2ccccc2F)C(=O)C1`, the cytotoxicity at 70.5 h was -9.08%.

With `Cc1nn(C)c(C)c1CN(C)C(=O)c1cccc(CCC(C)(C)O)c1`, the cytotoxicity at 70.5 h was -0.259%.

As for `CC(c1ccco1)N(C)Cc1cccc(C(=O)Nc2nccn2C)c1` (stereo unspecified), the cytotoxicity at 70.5 h was -5.04%. Regarding `O=C(c1cnn[nH]1)N1CCCC1c1nc2cc(F)ccc2[nH]1` (stereo unspecified), the cytotoxicity at 70.5 h was -12.1%. Then `COCCC(=O)N1C[C@H](C(C)C)[C@@H](N(C)C)C1`, with -14.3%; and `CCC1CN(C(=O)c2ccccc2C#N)CCN1C(C)C` (stereo unspecified), with 14.9%. For `CCS(=O)(=O)c1ncc(CN(C)C)n1Cc1ccccc1` the value was -3.58%; for `CCn1ncnc1CN1CCOC(Cc2cccc3ccccc23)C1` (stereo unspecified), -7.56%; for `O=C1CCC(C(=O)N2CCC(Cn3cc(C4CCCC4)nn3)CC2)=NN1`, -2.69%. Then `O=S(=O)(N1CCOCC1)N1CCCCC1CCc1ccc(O)cc1` (stereo unspecified), with -1.47%; and `COc1ccccc1OCCCN1C(=O)CCNC1=O`, with 32%; and `CN(Cc1ccncn1)C(=O)c1cccc(CCC(C)(C)O)c1`, with -2.23%. For the compound `CCOC(=O)CC1CCCCN1C(=O)c1cnc(C)cn1` (stereo unspecified), the cytotoxicity at 70.5 h was -4.78%. Then `COCCN1CC2(CCCN(C(=O)NCc3ccccc3)C2)CCC1=O` (stereo unspecified), with 0.704%; and `O=C(c1ccc(-c2nc[nH]n2)cc1)N1CCOC(C(F)(F)F)C1` (stereo unspecified), with 23.3%. Then `CCN(C)S(=O)(=O)N1CCCC(c2cccc(C(=O)O)c2)C1` (stereo unspecified), with -8.54%. For `Cc1cnccc1NCCn1ccnc1C1CCCCC1` the value was 0.0765%; for `COCCn1ccnc1CN1CCc2[nH]cnc2C1c1cnn(C)c1C` (stereo unspecified), -13.2%. Regarding `Cc1cc(C)c2c(NCC3(O)CCCCC3)ncnc2n1`, the cytotoxicity at 70.5 h is -2.73%.

`COc1ccc(C(C(=O)O)N2CCN(C3CCCC3)CC2)cc1OC` (stereo unspecified): the cytotoxicity at 70.5 h was 12.5%. For `CCc1cn[nH]c1C1CCN(c2cc(C)c3cccc(OC)c3n2)CC1` the value was 0.472%. Consider `COCCS(=O)(=O)c1ncc(CN(C)C)n1Cc1ccccc1`, for which the cytotoxicity at 70.5 h was 4.62%. For the compound `Cc1nc2cc(OCc3nc(C(=O)NC(C)(CO)CO)co3)ccc2s1`, the cytotoxicity at 70.5 h is 6.62%. Regarding `COc1ccc(-n2cccn2)c(CN2CCOCC(CN(C)C)C2)c1` (stereo unspecified), the cytotoxicity at 70.5 h was determined as 18.8%. Then `COCCn1cncc1Cn1cccc(C(F)(F)F)c1=O`, with 6.51%; and `FC(F)(F)c1ccccc1CCC1CCCN(Cc2cscn2)C1` (stereo unspecified), with 44.3%.

For the compound `CN(Cc1nc(Cc2cccc(C(F)(F)F)c2)no1)C(C1CC1)C1CC1`, the cytotoxicity at 70.5 h is -9.87%.

Consider `CCN(CCN1CCOCC1)C(=O)c1cccnc1`, for which the cytotoxicity at 70.5 h was 4.89%. On to `CCc1nc(N2CCN(Cc3ncccc3C)CC2)c2cnn(C)c2n1`, for which the cytotoxicity at 70.5 h was -4.75%. For the compound `CC(C(=O)N(C)Cc1noc(C2CCC2)n1)N1CCc2ccccc2C1` (stereo unspecified), the cytotoxicity at 70.5 h is 23.9%. For `CC(C)=CCN1C(=O)[C@H]2CC[C@@H]1CN(c1ncccc1F)C2` the value was -22.9%.

As to `O=C(CO)N1CCC2(CC1)CC(=O)N(Cc1cc(F)cc(F)c1)C2`, the cytotoxicity at 70.5 h is -1.76%. Consider `CCC(CO)N(Cc1cccc(-n2cccn2)c1)Cc1ccccn1` (stereo unspecified), for which the cytotoxicity at 70.5 h is 8.06%.

`CC(c1ccncn1)N(C)S(=O)(=O)NCc1ccccc1` (stereo unspecified): the cytotoxicity at 70.5 h is 47.6%.

Take `CCC(C)N(Cc1sccc1C)C(=O)c1ccc(S(C)(=O)=O)cc1` (stereo unspecified): the cytotoxicity at 70.5 h is -4.15%. As to `CCOc1ccc(-c2c(-c3ccccc3)ncn2C2CCNC2)cn1` (stereo unspecified), the cytotoxicity at 70.5 h is -12.8%. Then `OCc1ccc(-c2c(-c3ccccc3)ncn2CCN2CCOCC2)o1`, with 16.6%; and `CN1CC2(CCN(C(=O)CCc3nc4cccnc4n3C)C2)OC1=O` (stereo unspecified), with 15.3%; and `COCC(=O)NCC1CCCN(Cc2cc3ccccc3[nH]2)C1` (stereo unspecified), with -13.5%. For the compound `CCc1nccc(CN2CCCC(CNC(=O)c3ccccn3)C2)n1` (stereo unspecified), the cytotoxicity at 70.5 h is -3.62%. As for `Cc1ccc(CSc2nc(N)cc(NCCC(=O)N3CCCC3)n2)cc1`, the cytotoxicity at 70.5 h was -4.18%. For `NCC1Cc2cccc(-c3ccc(O)c(F)c3)c2O1` (stereo unspecified) the value was -13.6%; for `CC(=O)Nc1ccsc1C(=O)N1CC[C@@H]2CC[C@H](C1)N2C`, -6.78%; for `Cc1ccc(N2C[C@H](O)[C@@H](N3CCN(c4ccccn4)CC3)C2)nn1`, -11.3%. In the case of `Cc1ccccc1N1CCCN(C(=O)CCc2ccncc2)CC1`, the cytotoxicity at 70.5 h is -9.24%.
